Assay: Human HepG2 cell viability assay in 384 well format
Assay type: toxicity, cell-based
Set-up: dose 125 nL, time 70.5 hour; concentration not given beside the values
Settings: HepG2 cells, read-out: Inhibition

| SMILES | cytotoxicity at 70.5 h |
| --- | --- |
| CN(Cc1cccc(C(F)(F)F)c1)Cc1nc(-c2cnccn2)no1 | -8.53% |
| O=C(C1CCOCC1)N1C[C@H]2CC[C@@H]1CN(C1Cc3ccccc3C1)C2 | -5.9% |
| COc1cccc2c(=O)n(Cc3ccnc(C)c3)cnc12 | -26.7% |
| Cc1nccn1CCCN1CCCC(c2nccn2CC2CCC2)C1 (configuration not stated) | -12.7% |
| Cc1ccc(-n2cccn2)cc1S(=O)(=O)N1C[C@@H]2CC[C@H](C1)N(C)C2 | -1.91% |
| CCn1nc(CC(C)C)cc1C(=O)N1CCOCC(O)C1 (configuration not stated) | -2.68% |
| CC(C)(C)c1oc(C(N)=O)cc1CN1CCOC(C(F)(F)F)C1 (configuration not stated) | 1.68% |
| CC(O)Cc1cn(CC2CCN(C3CCSCC3)CC2)nn1 (configuration not stated) | -4.31% |
| COc1cccc(Cn2ncnc2CCC(C)N2CCN(C)CC2)c1 (configuration not stated) | -4.48% |
| COCc1nc(CNc2cc(C)nc(-c3ccccc3)n2)no1 | -8.75% |
| CSc1ccc(-c2nc(CN3C[C@@H](C)NC[C@@H]3C)c(C)o2)cc1 | -4.1% |
| c1ccc(-c2cc(CN3C[C@@H]4CC[C@H](C3)N(CC3CCC3)C4)on2)cc1 | -11.6% |
| CC(c1nccs1)N(C)C(=O)c1cc(CN(C)Cc2ccccc2)on1 (configuration not stated) | 0.573% |
| Cc1ccccc1OC(C(=O)N1CCC2(CC1)CN(C)C(=O)O2)C(C)C (configuration not stated) | -4.56% |
| Cc1ccnc(CC(C)N(C)c2cc(CN)nc(C)n2)c1 (configuration not stated) | -5.59% |
| CCOc1ccc(C(C)Nc2ncnc3c2CCNC3)cc1OCC (configuration not stated) | -12% |
| Cn1cc(-c2ccnc(NCC3CCCCO3)n2)cn1 (configuration not stated) | 9.61% |
| COc1ccc(-c2noc(C3CC(C(C)C)=NO3)n2)cc1 (configuration not stated) | 1.77% |
| C=C(C)COc1ccccc1CNC(CC)c1ccnn1C (configuration not stated) | -5.65% |
| Cc1occc1C(=O)N1CCC2(CCCN(CC3CC3)C2=O)C1 (configuration not stated) | -15% |
| Cc1cc(N2CCC(NC(C)Cc3ccsc3)CC2)nc(N)n1 (configuration not stated) | 32.9% |
| O=C(NCCC1CCCCO1)c1cc(COc2cncc(Cl)c2)on1 (configuration not stated) | 14.4% |
| CC(=O)NC(C(=O)N1CCn2cncc2C1)C(C)C (configuration not stated) | -2.16% |

| SMILES | cytotoxicity at 70.5 h |
| --- | --- |
| Cc1nonc1CN(C)Cc1nc(-c2cccc(F)c2F)oc1C | -7.8% |
| O=C(O)c1ccnc(-c2ccnc(COc3ccccc3Cl)n2)c1 | -7.03% |
| COc1ccc(OC)c(-n2cnnc2CN)c1 | -2.21% |
| CCn1nccc1S(=O)(=O)N1CCC2(CCCN(C(C)C)C2=O)C1 (configuration not stated) | -14.6% |
| COc1ccc(CNC(=O)N2CCN(C)[C@@H]3CS(=O)(=O)C[C@@H]32)cc1 | -1.34% |
| CCO[C@H]1COC[C@@H]1NC(=O)c1c[nH]nc1C1CCCCC1 | 19.5% |
| N#Cc1cccc(NC2CC(=O)N(Cc3cccc(F)c3)C2)n1 (configuration not stated) | -8.43% |
| Cc1cccc(-c2nccn2-c2cccc(CC(=O)O)c2)n1 | -9.85% |
| CNc1nc2c(c(C(=O)N3CCCC3)n1)CN(Cc1cc(C)no1)CC2 | 10.8% |
| CCC(C(=O)NC1CCCC1)n1ccc2ncccc2c1=O (configuration not stated) | -16.4% |
| Cc1nc(N2CCN3CCCCC3C2)nc2cc(S(C)(=O)=O)ccc12 (configuration not stated) | 0.525% |
| NC(=O)CN1CCC(C(=O)NCCn2cc(Cl)cn2)CC1 | 3.62% |
| COCCNC(=O)c1cc(COc2cncc(Cl)c2)on1 | -3.27% |
| Cc1cc(C(=O)N2CCCC3(CNC(=O)O3)C2)c2c(C)nn(C)c2n1 (configuration not stated) | -5.33% |
| COc1nccnc1-c1cccc(-c2ccn(CC3COCCO3)n2)c1 (configuration not stated) | -6.47% |
| CCn1c(N)nc2cc(C(=O)N3CCN(c4ccncc4)CC3)cnc21 | -2.2% |
| O=C1N(CCO)CCCC12CCN(Cc1noc(C3CCCC3)n1)C2 (configuration not stated) | 5.43% |
| O=C(Nc1ccccc1OCc1ccccn1)NC1CCOCC1 | -8.37% |
| CN(Cc1noc2c1CCCC2)C(=O)CN1C(=O)CSc2ccccc21 | 3.41% |
| COc1cccc(-c2ncc(CN3C[C@@H]4CC[C@H](C3)N(C)C4=O)s2)c1 | -0.692% |
| Cc1nccn1CCC1CCN(C(=O)C2CC3(CCNCC3)CN2)CC1 (configuration not stated) | -8.48% |
| CCC(=O)N1CCCC(C(=O)N2CCN(c3cnn(C)c(=O)c3)CC2)C1 (configuration not stated) | -12.7% |
| Cc1ncnc(NCCCN2CCCCC2CO)c1C (configuration not stated) | -1.1% |

| SMILES | cytotoxicity at 70.5 h |
| --- | --- |
| O=C(O)COc1ccc(CN2CCCC(CCc3ccccc3)C2)cc1 (configuration not stated) | 20.1% |
| Cn1ncnc1-c1ccnc(NCCCc2ccncc2)n1 | -17.5% |
| Cc1nc(O)cc(CN2CC=C(c3cnn(-c4ccccc4)c3)CC2)n1 | 14.1% |
| CC(C)OC(=O)N1C[C@H]2CC[C@@H]1CN(C(=O)c1ccccn1)C2 | 10.5% |
| COc1cc(Oc2ncccc2C(F)(F)F)ccc1CN1CCCC1 | 4.5% |
| CCc1cnc(N)nc1NCc1ccc(OC)cc1OC | -0.135% |
| CC(C)SCC(=O)N1Cc2cnc(-c3ccccc3)nc2C1 | -7.54% |
| COc1cccc(C2CCCN2C(=O)CC2=CSC3=NCCCN23)c1 (configuration not stated) | -12% |
| CCC(C)N(Cc1cccnc1)C(=O)c1ncccc1O (configuration not stated) | -8.41% |
| CCCn1ncnc1C(C)NC(=O)C1CCN(C(C)C)CC1 (configuration not stated) | -4.07% |
| COCc1nc(N2CC[C@H](N(C)C)C2)c2cnn(C)c2n1 | -10% |
| Cc1nc(C(C)C)sc1C(=O)N1CCN(C2CCSCC2)CC1 | 9.03% |
| Cc1ccc(-c2ccnc(NC(C)c3ncc[nH]3)n2)c(C)n1 (configuration not stated) | -10.5% |
| COc1cccc([C@H]2CN(CCCS(=O)(=O)N(C)C)C[C@@H]2N)c1 | -3.42% |
| CCN1CCC(CC(=O)NCc2nc(C)cc(C)n2)CC1 | -3.98% |
| O=C(COCC(F)(F)C(F)F)N1CCC2(CCCN(CCO)C2=O)C1 (configuration not stated) | -2.98% |
| Cc1ccc(O)c(-c2cc(NCCO)nc3[nH]ccc23)c1 | -4.62% |
| O=C(O)c1ccnc(-c2ccnc(COc3cccc(F)c3)n2)c1 | 16.7% |
| Cc1nn(C)c2ncnc(N(C)CC3CCN(CC(C)C)C3)c12 (configuration not stated) | -2.77% |
| CC(=O)N1CCN(Cc2c(C)sc3ccccc23)CC(O)C1 (configuration not stated) | -3.67% |
| COc1cccc(CC(=O)N2CCC3(CC2)OCCCC3O)c1OC (configuration not stated) | -7.1% |
| Cc1cc(=O)n(CC(=O)Nc2cccc(Cl)c2)nc1C | 21.6% |
| CCN(CCO)C(=O)C1CCC(=O)N(CCc2cccc(F)c2)C1 (configuration not stated) | -1.58% |

| SMILES | cytotoxicity at 70.5 h |
| --- | --- |
| CCCS(=O)(=O)N1CCN(c2cc(-n3cnc(C)c3C)ncn2)CC1 | 2.79% |
| CC(COc1ccccc1)NS(C)(=O)=O (configuration not stated) | -1.8% |
| CCC(NC1CCCC1)c1ccc(S(C)(=O)=O)cc1 (configuration not stated) | -12.8% |
| O=C(COCC1CCCO1)N1CCCN(Cc2ccccc2F)CC1 (configuration not stated) | -5.89% |
| COc1ccc2c(C(=O)N(C)C)cc(-c3cnc(N)nc3)nc2c1 | -3.44% |
| Cc1nnc(CCNC(=O)c2coc(CN3CCOCC3)c2)s1 | 1.37% |
| CCC(NS(C)(=O)=O)c1ccccc1C (configuration not stated) | 10.1% |
| CN(CC1Cc2ccccc2CN1C)c1nc(N)nc2c1CCNCC2 (configuration not stated) | -9.32% |
| CN1CC2(CCCN(Cc3cccc(Oc4ccccc4)c3)C2)OC1=O (configuration not stated) | 24.6% |
| O=S1(=O)CCC(n2cc(C3=CCN(CCc4ccccc4)CC3)cn2)C1 (configuration not stated) | -2.15% |
| CCCC(=O)N1CCN(c2cc(-n3cnc(C)c3C)nc(C)n2)CC1 | -2.01% |
| O=C1CC(c2ccc(F)cc2)c2cnn(C3CCCC3)c2N1 (configuration not stated) | -7.98% |
| CCOc1cccc(C2CC(=O)NCc3nc(N(C)C)sc32)c1 (configuration not stated) | -5.3% |
| COCC(=O)N1CCC(C(=O)Nc2ccc(C(C)=O)cc2)CC1 | -7.91% |
| COCCN1CC2(CCCN(c3ncnc4[nH]cnc34)C2)CCC1=O (configuration not stated) | -1.89% |
| CCC1CCCCN1S(=O)(=O)c1c(N)noc1C (configuration not stated) | -2.36% |
| Cc1ccc(OCC(C)NS(C)(=O)=O)cc1 (configuration not stated) | -4.31% |
| Cc1nc(N2CCN(S(C)(=O)=O)CC2)cc(-n2cnc(C)c2C)n1 | -3.21% |
| CN(Cc1ccc(-n2cncn2)cc1)Cc1ncc[nH]1 | -0.834% |
| CCn1c(CN(C)C)nnc1C1CCN(Cc2cccc(C#N)c2)CC1 | -5.02% |
| CCC(C(=O)NCc1cc(N2CCOCC2)ncn1)n1cccn1 (configuration not stated) | -1.38% |
| Cn1cc(CN(Cc2cccc(-n3cccn3)c2)C2CC2)cn1 | 43.4% |
| Cc1cc(C)nc(N2CCC(NCCSc3nnnn3C)CC2)n1 | 11.2% |

| SMILES | cytotoxicity at 70.5 h |
| --- | --- |
| Cc1ccc(C(C(=O)NCc2cc(C)[nH]n2)N(C)C)cc1 (configuration not stated) | -8.58% |
| CCc1ncc(C(=O)N2CCN(c3cnn(C)c(=O)c3)CC2)cn1 | -5.02% |
| Cc1cnc(C)c(N2CCN(Cc3ccc(C)c(C)c3)CC2)n1 | 3.81% |
| CCN(CC)C(=O)[C@@H]1C[C@@H](n2cc(-c3cccc(OC)c3)nn2)CN1 | -15.1% |
| Cc1ccc(-c2ncc(C(=O)N3CCCC(CCN)C3)c(O)n2)cc1 (configuration not stated) | -7.81% |
| CC(=O)N1C[C@@H]2CC[C@H](C1)N(S(=O)(=O)c1ccc(F)cc1Cl)C2 | -6.08% |
| CCCNS(=O)(=O)c1ccc(C(=O)NC(CC)c2cnn(C)c2)cc1 (configuration not stated) | -4.79% |
| CCc1nn(C)c(Cl)c1CN1CCN(c2nc(C(N)=O)cs2)CC1 | -3.53% |
| CN1CCCNC(=O)C12CCN(C(=O)c1ccc3[nH]cnc3c1)CC2 | -3.14% |
| Cc1cc(C)n(CC(=O)N2Cc3cnc(C(C)(C)C)nc3C2)n1 | -4.01% |
| CN(C)C[C@@H]1CN(C(=O)Cc2cccc(O)c2)C[C@@H]1CO | -7.03% |
| Cc1ccsc1-c1nc(CN(C)Cc2noc(C(C)C)n2)c(C)o1 | -10.3% |
| CN1CC2(CCC1=O)CCN(CC[C@@H](O)c1ccccc1)CC2 | 19.6% |
| Cc1cc(CN[C@@H](C)C(N)=O)c(C)s1 | -7.91% |
| CC(=O)Nc1ccc(-c2cn(CCn3c(C)cc(C)nc3=O)nn2)cc1 | -6.08% |
| CCc1ccccc1OC1CN(C(=O)CN(C)Cc2cccnc2)C1 | 14% |
| CN1C[C@@H](NC(=O)c2cc(F)cc(F)c2)C[C@H]1C(=O)NCc1ncc[nH]1 | -16.2% |
| COCCN1CCC2(CCC1=O)CN(C1CCOCC1)CCN2C (configuration not stated) | -10.7% |
| Cc1ccc2nc(CNCCCN3CCCC3)cc(O)c2c1 | -9.2% |
| Cc1nn(CCNC(C)Cn2cncn2)c(C)c1Cl (configuration not stated) | 7.1% |

Source: ChEMBL document CHEMBL3507680, “University of Dundee, Gates Library screen for HepG2 cell viability”
